In the NIST ThermoML archive (doi:10.1021/je0601457):
± gives the expanded uncertainty stated by the source.

Assay: xn = mol fraction of the nth substance listed

Cc1cnccn1 [2-methylpyrazine] + O=C=O
Liquid, linear displacement
Details	mass density [kg/m3]
348.65 K, x1 = 0.624	875 ± 35
349.45 K, x1 = 0.122	770 ± 31
349.75 K, x1 = 0.062	660 ± 27
351.35 K, x1 = 0.857	878 ± 35
355.05 K, x1 = 0.339	914 ± 37
355.15 K, x1 = 0.156	799 ± 32
358.25 K, x1 = 0.091	656 ± 27
365.65 K, x1 = 0.122	707 ± 28
371.75 K, x1 = 0.857	858 ± 34
375.55 K, x1 = 0.156	745 ± 30
375.75 K, x1 = 0.264	746 ± 30
376.65 K, x1 = 0.624	845 ± 34
387.35 K, x1 = 0.339	891 ± 36

Fluid (supercritical or subcritical phases), Linear displacement technique
Details	mass density [kg/m3]
349.45 K, 14100 kPa, x1 = 0.122	787 ± 32
349.45 K, 15520 kPa, x1 = 0.122	810 ± 33
349.45 K, 16310 kPa, x1 = 0.122	824 ± 33
349.45 K, 18790 kPa, x1 = 0.122	852 ± 34
349.75 K, 14100 kPa, x1 = 0.062	691 ± 32
349.75 K, 15100 kPa, x1 = 0.062	722 ± 29
351.15 K, 13970 kPa, x1 = 0.081	778 ± 31
351.15 K, 14720 kPa, x1 = 0.081	780 ± 31
351.15 K, 16720 kPa, x1 = 0.081	783 ± 31
351.35 K, 3760 kPa, x1 = 0.857	878 ± 35
351.35 K, 7000 kPa, x1 = 0.857	882 ± 35
351.35 K, 11210 kPa, x1 = 0.857	888 ± 36
351.35 K, 17340 kPa, x1 = 0.857	893 ± 36
352.75 K, 14140 kPa, x1 = 0.039	495 ± 21
352.75 K, 14790 kPa, x1 = 0.039	525 ± 25
352.75 K, 15410 kPa, x1 = 0.039	543 ± 23
355.05 K, 11030 kPa, x1 = 0.339	918 ± 37
355.05 K, 14660 kPa, x1 = 0.339	927 ± 37
355.05 K, 17280 kPa, x1 = 0.339	939 ± 38
355.15 K, 13690 kPa, x1 = 0.156	808 ± 38
355.15 K, 14590 kPa, x1 = 0.156	821 ± 33
355.15 K, 16930 kPa, x1 = 0.156	843 ± 34
358.25 K, 15690 kPa, x1 = 0.091	696 ± 29
358.25 K, 16450 kPa, x1 = 0.091	714 ± 29
358.25 K, 17690 kPa, x1 = 0.091	743 ± 30
358.25 K, 19210 kPa, x1 = 0.091	767 ± 31
358.25 K, 20690 kPa, x1 = 0.091	787 ± 32
365.65 K, 17000 kPa, x1 = 0.122	746 ± 30
365.65 K, 18100 kPa, x1 = 0.122	769 ± 31
365.65 K, 19170 kPa, x1 = 0.122	786 ± 32
369.15 K, 15970 kPa, x1 = 0.091	633 ± 27
369.15 K, 16660 kPa, x1 = 0.091	659 ± 31
369.15 K, 17340 kPa, x1 = 0.091	681 ± 28
369.15 K, 18100 kPa, x1 = 0.091	701 ± 29
369.15 K, 19000 kPa, x1 = 0.091	721 ± 33
371.75 K, 4380 kPa, x1 = 0.857	861 ± 34
371.75 K, 8450 kPa, x1 = 0.857	865 ± 35
371.75 K, 15830 kPa, x1 = 0.857	875 ± 35
371.75 K, 28450 kPa, x1 = 0.857	889 ± 36
374.25 K, 14030 kPa, x1 = 0.033	346 ± 18
374.25 K, 14550 kPa, x1 = 0.033	367 ± 18
374.25 K, 15000 kPa, x1 = 0.033	384 ± 18
374.25 K, 16240 kPa, x1 = 0.033	425 ± 19
374.55 K, 17210 kPa, x1 = 0.081	740 ± 30
374.55 K, 19210 kPa, x1 = 0.081	768 ± 31
374.75 K, 16100 kPa, x1 = 0.062	592 ± 29
374.75 K, 16720 kPa, x1 = 0.062	626 ± 33
374.75 K, 16970 kPa, x1 = 0.062	639 ± 30
375.55 K, 16790 kPa, x1 = 0.156	765 ± 31
375.55 K, 18100 kPa, x1 = 0.156	789 ± 32
375.55 K, 19970 kPa, x1 = 0.156	811 ± 33
375.75 K, 17000 kPa, x1 = 0.264	758 ± 30
375.75 K, 20720 kPa, x1 = 0.264	778 ± 31
375.75 K, 24590 kPa, x1 = 0.264	797 ± 32
376.35 K, 14860 kPa, x1 = 0.039	367 ± 19
376.35 K, 15760 kPa, x1 = 0.039	406 ± 20
376.65 K, 7970 kPa, x1 = 0.624	846 ± 34
376.65 K, 10970 kPa, x1 = 0.624	852 ± 34
376.65 K, 14930 kPa, x1 = 0.624	859 ± 34
376.65 K, 19340 kPa, x1 = 0.624	864 ± 35
379.45 K, 17410 kPa, x1 = 0.091	598 ± 26
379.45 K, 20340 kPa, x1 = 0.091	675 ± 28
379.45 K, 21900 kPa, x1 = 0.091	705 ± 29
379.45 K, 24210 kPa, x1 = 0.091	731 ± 29
387.35 K, 15480 kPa, x1 = 0.339	899 ± 36
387.35 K, 18070 kPa, x1 = 0.339	912 ± 37
387.35 K, 22790 kPa, x1 = 0.339	933 ± 37
